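Where inhibition never reached the appropriate level, the endpoint shown equals the highest concentration tested. Otherwise, values were interpolated linearly from a five-concentration, 48-hour dose response in 96-well plates. TGI denotes the concentration required for complete inhibition of growth.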
Key:
Assay in all cases: NCI tumour cell line growth inhibition, 48 h
RXF-631 renal = system: RXF-631 renal
M19-MEL melanoma = system: M19-MEL melanoma
LXFL 529 NSCLC = system: LXFL 529 NSCLC
DMS 273 small cell lung = system: DMS 273 small cell lung
P388 leukemia = system: P388 leukemia
HOP-18 NSCLC = system: HOP-18 NSCLC
SN12K1 renal = system: SN12K1 renal
P388/ADR leukemia = system: P388/ADR leukemia

## C=CC1(C)CCC2=C(CCC3C(C)(C(=O)OC)CCCC23C)C1=O (stereo not drawn)
RXF-631 renal
  TGI: 31.6 µM
M19-MEL melanoma
  TGI: 36 µM
LXFL 529 NSCLC
  TGI: 36.4 µM

## O=C1CCCCC2N(C(c3ccccc3)c3ccccc3)CC[C@@]12c1ccccc1 (mixture of isomers)
RXF-631 renal
  TGI: > 10 µM
M19-MEL melanoma
  TGI: > 10 µM
DMS 273 small cell lung
  TGI: > 10 µM

## C=C(C)C(=O)OC1CCC2(C)C(CCC3C2CCC2(C)C(c4ccc(=O)oc4)CC4OC432)C1 (stereo not drawn)
P388 leukemia
  TGI: 15.5 µM
HOP-18 NSCLC
  TGI: 104 µM
SN12K1 renal
  TGI: 17.6 µM
P388/ADR leukemia
  TGI: 31.7 µM
M19-MEL melanoma
  TGI: 10.7 µM
DMS 273 small cell lung
  TGI: 20.5 µM

## CCN(CC)CC(=O)O[C@]1(CC)C(=O)OCc2c1cc1n(c2=O)Cc2cc3ccccc3nc2-1
HOP-18 NSCLC
  TGI: > 100 µM
M19-MEL melanoma
  TGI: 0.738 µM
LXFL 529 NSCLC
  TGI: 3.3 µM
DMS 273 small cell lung
  TGI: 0.0304 µM

## Clc1ccccc1/C=C/c1cscn1
M19-MEL melanoma
  TGI: > 100 µM
LXFL 529 NSCLC
  TGI: > 100 µM

From PubChem BioAssay (NCI)
